The assay has as its target PDE6D (Homo sapiens, UniProt O43924). In words: phage-based competition binding screen at 2 μM. As to conditions: 2 μM competitor, duplicate. Further details: made in house; host or cells: phage. On the procedure: Forty-four molecules were screened for PDE6D binding activity in a standard phage-based competition binding assay, as described in co-pending U.S. patent applications Ser. No. 10/115,442, filed 2 Apr. 2002, and Ser. No. 10/406,797 filed on 2 Apr. 2003 (or PCT International Application PCT/US03/10247 filed 2 Apr. 2003). All compounds were screened in duplicate (duplicate sets of bars) at a concentration of 2 μM.

Molecules are shown by their SMILES.

On to `CC(C)c1[nH]c(-c2ccc(F)cc2)c(-c2ccccc2)c1C(=O)Nc1ccccc1` [Compound 781430], for which the “fraction of PDE6D-displaying phage bound to immobilized atorvastatin (screen outcome)” value was “candidate lead compounds”.

The values are drawn from patent US7323490B2, “Pyrrole compounds and uses thereof” (Ambit Biosciences Corporation, priority 2003, dated 2008).
